Among the data in PubChem BioAssay AID624129 (Sanford-Burnham Center for Chemical Genomics, 2012) are outcome, IC50 and inhibition values, retold here.

Active and inactive are the calls of the source. How the calls were made is not given here.

For the assay, the target named is C-X-C chemokine receptor type 6 (Homo sapiens) (UniProt O00574). Nature of the assay: CXCR6 receptor antagonists, dose response, cell-based, beta-arrestin, DiscoveRx, APJ panel, uHTS hits (AID 624129). The conditions noted are these: CXCR6 beta-arrestin (DiscoveRx) antagonist cell assay; for outcome: CXCR6, dose range 1; for inhibition: CXCR6, run 2, dose range 1, at 79 µM (top of the series).

Where [1] appears, read: CXCR6, dose range 1, mean IC50 across replicates.

C-X-C chemokine receptor type 6 (Homo sapiens), sequence (O00574 whole entry, looked up): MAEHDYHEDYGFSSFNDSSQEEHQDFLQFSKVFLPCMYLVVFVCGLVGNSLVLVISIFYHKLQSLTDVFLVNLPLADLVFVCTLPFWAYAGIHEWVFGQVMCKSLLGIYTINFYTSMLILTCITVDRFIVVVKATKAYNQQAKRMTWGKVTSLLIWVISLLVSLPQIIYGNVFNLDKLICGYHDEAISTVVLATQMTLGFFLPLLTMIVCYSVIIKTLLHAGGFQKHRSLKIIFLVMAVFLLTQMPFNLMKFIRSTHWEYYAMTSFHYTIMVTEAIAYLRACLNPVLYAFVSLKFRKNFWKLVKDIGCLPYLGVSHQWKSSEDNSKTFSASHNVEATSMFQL

Turning to `CCCCC(=O)NC(=S)Nc1ccccc1C(=O)Nc1ccccc1`, the outcome was inactive and the inhibition turned out to be 79.2%. Also, the IC50 under setting [1] was 11.4 µM. Besides, where the note is “CXCR6, run 1, dose range 2”, the IC50 stood at 10.5 µM. Also, the IC50 (CXCR6, run 2, dose range 2) came to 12.3 µM.

Turning to `Cc1ccccc1CS(=O)(=O)c1nnc([C@H](Cc2ccccc2)NC(=O)OC(C)(C)C)o1`, the outcome was inactive and the inhibition was 110%. This compound came in with an IC50 under setting [1] of 15.9 µM. In addition, the IC50 (CXCR6, run 1, dose range 2) was 16 µM. Moreover, the IC50 (CXCR6, run 2, dose range 2) worked out at 15.7 µM.

As to `NC(=O)c1ccccc1NCC(=O)c1ccc(Cl)cc1`, the result was active and the inhibition amounted to 36.4%. Under setting [1], this compound had an IC50 of 5.58 µM. For the setting “CXCR6, run 1, dose range 2”, this compound had a 50% inhibitory concentration (IC50) of 5.58 µM. Besides, where the note is “CXCR6, run 2, dose range 2”, the IC50 was more than 79 µM.

In the case of `Cc1nnc(Sc2cc(NCCO)c([N+](=O)[O-])c3nonc23)s1`, the result was inactive and the inhibition was 114%. The half-inhibitory concentration (IC50) under setting [1] was determined as 12.1 µM. In addition, the IC50 (CXCR6, run 1, dose range 2) is 9.44 µM. Also, the IC50 (CXCR6, run 2, dose range 2) worked out at 14.7 µM.

Regarding `O=[N+]([O-])c1cc2no[n+]([O-])c2cc1N1CCCCC1`, the result was inactive and the inhibition is 112%. Moreover, under setting [1], the IC50 turned out to be 12 µM. In addition, for the setting “CXCR6, run 1, dose range 2”, the IC50 stood at 12.2 µM. Also, the IC50 (CXCR6, run 2, dose range 2) turned out to be 11.9 µM.

For `COc1cc(N2C(=O)C=CC2=O)ccc1N1C(=O)C=CC1=O`, the outcome was inactive and the inhibition was 112%. This compound had an IC50 under setting [1] of 15.8 µM. For the same compound, the IC50 (CXCR6, run 1, dose range 2) was 12.7 µM. This compound also gave an IC50 (CXCR6, run 2, dose range 2) of 18.9 µM.

On to `CCOC(=O)CS(=O)(=O)c1nc(-c2ccccc2)cc(C(F)(F)F)n1`, for which the outcome was inactive and the inhibition stood at 108%. Under setting [1], the IC50 came to 18.9 µM. Moreover, under “CXCR6, run 1, dose range 2”, the IC50 was 17.7 µM. Moreover, the IC50 (CXCR6, run 2, dose range 2) stood at 20.2 µM.

For `C=CCOc1ccc(C=NNc2ccc(S(=O)(=O)Nc3ccccc3C(=O)O)cc2[N+](=O)[O-])cc1OC`, the result was inactive and the inhibition came to 98.5%. Moreover, the IC50 under setting [1] turned out to be 28.8 µM. For the setting “CXCR6, run 1, dose range 2”, this compound gave an IC50 of 29.4 µM. This compound returned an IC50 (CXCR6, run 2, dose range 2) of 28.2 µM.

As for `Cc1cccc(Cc2cnc(N3C(=N)SC(C)C3=O)s2)c1` (stereo not given), the result was active and the inhibition came to 41.4%. Under setting [1], this compound returned a half-inhibitory concentration (IC50) of 7.79 µM. The same compound gave an IC50 (CXCR6, run 1, dose range 2) of 7.79 µM. For the same compound, under “CXCR6, run 2, dose range 2”, the IC50 is more than 79 µM.

With `O=C1c2cccc3c([N+](=O)[O-])ccc(c23)C(=O)N1c1ccc(Cl)cn1`, the outcome was inactive and the inhibition was found to be 92.1%. Also, the IC50 under setting [1] is 19.6 µM. Also, under “CXCR6, run 1, dose range 2”, the IC50 is 17.7 µM. The compound also showed an IC50 (CXCR6, run 2, dose range 2) of 21.6 µM.

Turning to `O=C(NC(=S)N1CCN(c2ccc(C(F)(F)F)cc2[N+](=O)[O-])CC1)c1cccs1`, the result was inactive and the inhibition is 85.8%. This compound also returned an IC50 under setting [1] of 12.9 µM. The IC50 (CXCR6, run 1, dose range 2) was determined as 10.4 µM. Under “CXCR6, run 2, dose range 2”, this compound returned an IC50 of 15.4 µM.

As to `FC(F)(F)c1cnc(NNC(=S)Nc2ccccc2)c(Cl)c1`, the result was inactive and the inhibition was 112%. This compound gave an IC50 under setting [1] of 14.9 µM. Also, the half-maximal inhibitory concentration (IC50) (CXCR6, run 1, dose range 2) was 12 µM. The 50% inhibitory concentration (IC50) (CXCR6, run 2, dose range 2) stood at 17.8 µM.

As to `CCOC(=O)c1c(-c2ccc(C)o2)csc1NC(=S)NC(=O)N(C)C`, the result was inactive and the inhibition came to 99.3%. The compound also showed an IC50 under setting [1] of 13.6 µM. Where the note is “CXCR6, run 1, dose range 2”, the 50% inhibitory concentration (IC50) amounted to 9.19 µM. Under “CXCR6, run 2, dose range 2”, this compound displayed an IC50 of 18 µM.

As to `O=C(NNc1ccc([N+](=O)[O-])cc1[N+](=O)[O-])c1ccco1`, the outcome was inactive and the inhibition is 86.8%. This compound had an IC50 under setting [1] of 30.2 µM. Moreover, the IC50 (CXCR6, run 1, dose range 2) is 30.4 µM. Further, the IC50 (CXCR6, run 2, dose range 2) came out at 29.9 µM.

On to `O=C(COC(=O)C1CCN(S(=O)(=O)c2cccs2)CC1)c1cc2ccccc2o1`, for which the outcome was inactive and the inhibition was determined as 27.4%. In addition, the IC50 under setting [1] came to 16.8 µM. Under “CXCR6, run 1, dose range 2”, this compound had a 50% inhibitory concentration (IC50) of 16.8 µM. Moreover, for the setting “CXCR6, run 2, dose range 2”, the half-maximal inhibitory concentration (IC50) is more than 79 µM.

In the case of `Cc1ccc(NCC(=O)c2ccc(C)cc2)cc1`, the result was active and the inhibition worked out at 58.5%. The compound further yielded an IC50 under setting [1] of 5.44 µM. The IC50 (CXCR6, run 1, dose range 2) amounted to 5.44 µM. The compound further displayed an IC50 (CXCR6, run 2, dose range 2) of more than 79 µM.

As to `CN(c1ccccc1)c1ccc(/C=C/[N+](=O)[O-])cc1`, the outcome was inactive and the inhibition is 114%. The IC50 under setting [1] worked out at 11.4 µM. This compound came in with an IC50 (CXCR6, run 1, dose range 2) of 10.3 µM. Under “CXCR6, run 2, dose range 2”, this compound yielded an IC50 of 12.5 µM.

Regarding `CCOc1ccc(/C=C/[N+](=O)[O-])c2ccccc12`, the result was inactive and the inhibition is 109%. Further, the half-inhibitory concentration (IC50) under setting [1] came out at 17.2 µM. The IC50 (CXCR6, run 1, dose range 2) was 17.3 µM. The compound also came in with an IC50 (CXCR6, run 2, dose range 2) of 17.1 µM.

For orientation: IC50 means the concentration at which inhibition is half-maximal. Lower therefore signals greater potency in that assay. Usually inhibition stands for the drop in the measured response relative to a control, in per cent.
